Measured values from patent US10428083B2, “Heterocyclylmethyl-thienouracile as antagonists of the adenosine-A2B-receptor” (BAYER PHARMA AKTIENGESELLSCHAFT, priority 2015, dated 2019).

Columns and labels:
[1] = biological target: human adenosine A3 receptor (Homo sapiens (Human), UniProt P0DMS8); test: Adenosine receptor radioligand binding assay, A3 ([125I]-AB-MECA, HEK293 membranes); settings: radioligand [125I]-AB-MECA, HEK293 membrane preparation; Cheng-Prusoff
Description: (§1) B-2. Adenosine Receptor Binding Assays
(§2) The binding properties of the test compounds on adenosine receptors were determined in binding studies with radioligands. For this purpose, membrane preparations of the human adenosine receptor subtypes were produced from cell lines having recombinant receptor expression (CHO cells for the A1 receptor, HEK293 cells for the A2a, A2b and A3 receptors). The following radioligands were used in the experiments: [^3H]-DPCPX for the A1 receptor, [^3H]-CGS 21680 for the A2a receptor, [^3H]-CPX for the A2b receptor and [^125I]-AB-MECA for the A3 receptor. The test substances were each tested in 8 different concentrations and 2 repeat tests per concentration. The displacement of the particular radioligand by the test compound was expressed as percentage inhibition of the specific binding of the controls. The IC50 values (concentration which brings about half-maximum inhibition of the specific binding of the controls) and the Hill coefficients (nH) were determined by a non-linear regression analysis, using the competition curves obtained from the mean values of the repeat tests and conducting a curve fit according to the Hill equation: Y=D+[A−D/1+(C/C50)^nH] (Y=specific binding; A=left-hand asymptote of the curve; D=right-hand asymptote of the curve; C=substance concentration; C50=IC50; nH=rise factor).
(§3) The inhibition constant (Ki) was calculated by the Cheng-Prusoff equation: Ki=IC50/(1+L/KD) (L=concentration of the radioligand in the assay; KD=receptor affinity of the radioligand for the receptor, determined with a Scatchard plot). [Literature: A1 receptor: Townsend-Nicholson, A. and Schofield, P. R., J. Biol. Chem. 269: 2373-2376 (1994); A2a receptor: Luthin, D. R. et al., Mol. Pharmacol. 47: 307-313 (1995); A2b receptor: Stehle, J. H. et al., Mol. Endocrinol. 6: 384-393 (1992) and Linden et al., Mol. Pharmacol. 56: 705-713 (1999); A3 receptor: Salvatore, C. A. et al., Proc. Natl. Acad. Sci. U.S.A. 90: 10365-10369 (1993) and Jacobson, K. A. et al., Neuropharmacology 36: 1157-1165 (1997)].
(§4) Table 2 below lists the Ki values thus determined from these binding assays for representative working examples: […]

[2] = biological target: T1, human adenosine A2b receptor (Homo sapiens (Human), UniProt P29275); test: Adenosine receptor radioligand binding assay, A2b ([3H]-CPX, HEK293 membranes); settings: radioligand [3H]-CPX, HEK293 membrane preparation; Cheng-Prusoff
Description: as §1, §2, §3, §4

[3] = biological target: human adenosine A1 receptor (Homo sapiens (Human), UniProt P30542); test: Adenosine receptor radioligand binding assay, A1 ([3H]-DPCPX, CHO membranes); settings: radioligand [3H]-DPCPX, CHO membrane preparation; Cheng-Prusoff
Description: as §1, §2, §3, §4

[4] = biological target: human adenosine A2a receptor (Homo sapiens (Human), UniProt P29274); test: Adenosine receptor radioligand binding assay, A2a ([3H]-CGS 21680, HEK293 membranes); settings: radioligand [3H]-CGS 21680, HEK293 membrane preparation; Cheng-Prusoff
Description: as §1, §2, §3, §4

[5] = biological target: T1, human adenosine A2b receptor; test: Cellular in vitro reporter gene test for A2b receptor activity (CHO-K1, CRE-luciferase, NECA stimulation); assay type: cell-based; settings: recombinant CHO-K1 cell line, CRE-luciferase reporter, antagonism of EC50 concentration of NECA; in some cases means of several determinations, rounded to two significant figures; read-out: A2b receptor IC50
Procedure, shortened: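 CHO-K1 cells with CRE-driven luciferase; antagonists co-incubated with NECA at its EC50, determined in a pre-experiment on each test day. Luciferase read by luminescence 3 h after NECA addition.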

T1 sequence (P29275 whole entry): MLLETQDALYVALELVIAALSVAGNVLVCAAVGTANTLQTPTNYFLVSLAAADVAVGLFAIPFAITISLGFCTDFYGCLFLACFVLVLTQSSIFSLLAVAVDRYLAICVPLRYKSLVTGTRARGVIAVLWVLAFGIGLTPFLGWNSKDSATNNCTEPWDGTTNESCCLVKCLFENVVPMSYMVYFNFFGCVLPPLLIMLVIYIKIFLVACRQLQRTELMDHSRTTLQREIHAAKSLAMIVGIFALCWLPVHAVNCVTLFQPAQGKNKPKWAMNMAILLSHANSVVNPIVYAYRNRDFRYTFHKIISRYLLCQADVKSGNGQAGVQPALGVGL
Chain of human adenosine A3 receptor (P0DMS8 whole entry): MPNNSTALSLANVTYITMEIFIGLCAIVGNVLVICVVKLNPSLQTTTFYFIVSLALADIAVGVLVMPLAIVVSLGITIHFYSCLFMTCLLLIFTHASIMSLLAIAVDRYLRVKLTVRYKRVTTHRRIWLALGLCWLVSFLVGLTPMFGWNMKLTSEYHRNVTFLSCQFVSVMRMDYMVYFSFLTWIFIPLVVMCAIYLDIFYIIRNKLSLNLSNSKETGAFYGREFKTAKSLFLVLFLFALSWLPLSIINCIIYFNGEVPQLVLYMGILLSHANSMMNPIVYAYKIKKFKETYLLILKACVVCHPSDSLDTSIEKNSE
Chain of human adenosine A1 receptor (P30542 whole entry): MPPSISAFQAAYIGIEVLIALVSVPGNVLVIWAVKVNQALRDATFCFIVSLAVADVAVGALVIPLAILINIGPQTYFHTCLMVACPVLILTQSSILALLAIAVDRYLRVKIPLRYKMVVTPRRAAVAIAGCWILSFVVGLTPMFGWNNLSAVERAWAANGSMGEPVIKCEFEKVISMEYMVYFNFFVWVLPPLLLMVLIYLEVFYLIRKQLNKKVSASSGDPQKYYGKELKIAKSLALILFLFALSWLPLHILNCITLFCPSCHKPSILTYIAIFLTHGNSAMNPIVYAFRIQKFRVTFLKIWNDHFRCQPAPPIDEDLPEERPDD
Chain of human adenosine A2a receptor (P29274 whole entry): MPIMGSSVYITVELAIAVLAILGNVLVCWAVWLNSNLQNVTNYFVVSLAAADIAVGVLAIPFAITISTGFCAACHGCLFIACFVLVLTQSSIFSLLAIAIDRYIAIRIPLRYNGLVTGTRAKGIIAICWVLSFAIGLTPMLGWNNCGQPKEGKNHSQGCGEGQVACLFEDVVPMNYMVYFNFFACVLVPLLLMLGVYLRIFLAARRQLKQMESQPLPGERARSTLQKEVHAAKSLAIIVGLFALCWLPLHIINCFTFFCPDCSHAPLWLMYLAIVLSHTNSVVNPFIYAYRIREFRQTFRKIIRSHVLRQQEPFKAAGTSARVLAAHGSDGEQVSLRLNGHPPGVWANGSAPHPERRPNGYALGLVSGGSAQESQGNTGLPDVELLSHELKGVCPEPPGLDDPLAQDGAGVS

Molecule `COCCn1c(=O)n(C(C)C)c(=O)c2c(C)c(CN3CCNC3=O)sc21` [Example 86, 3-Isopropyl-1-(2-methoxyethyl)-5-methyl-6-[(2-oxoimidazolidin-1-yl)methyl]thieno[2,3-d]pyrimidine-2,4(1H,3H)-dione] has a Ki [1] of 160000 nM, a Ki [2] of 2.7 nM and a Ki [3] of 1100 nM. The Ki [4] was 270 nM and the IC50 [5] was 6.4 nM.
`CCn1c(=O)c2c(C)c(CN3CCNC3=O)sc2n(CCOC)c1=O` [Example 59, 3-Ethyl-1-(2-methoxyethyl)-5-methyl-6-[(2-oxoimidazolidin-1-yl)methyl]thieno[2,3-d]pyrimidine-2,4(1H,3H)-dione] was tested, and the Ki [1] was 11000 nM, the Ki [2] was 2.4 nM and the Ki [3] was 330 nM. It also gave a Ki [4] of 120 nM and an IC50 [5] of 5.1 nM.
Work on `CCn1c(=O)c2c(C)c(Cn3nc[nH]c3=O)sc2n(CCC(F)(F)F)c1=O` [Example 113, 3-Ethyl-5-methyl-6-[(5-oxo-4,5-dihydro-1H-1,2,4-triazol-1-yl)methyl]-1-(3,3,3-trifluoropropyl)thieno[2,3-d]pyrimidine-2,4(1H,3H)-dione] yielded a Ki [2] of 6.4 nM, a Ki [3] of 1500 nM and a Ki [4] of 1700 nM. The IC50 [5] was 8.1 nM.
`CCn1c(=O)c2c(C)c(Cn3cn[nH]c3=O)sc2n(CCC(F)(F)F)c1=O` [Example 116, 3-Ethyl-5-methyl-6-[(5-oxo-1,5-dihydro-4H-1,2,4-triazol-4-yl)methyl]-1-(3,3,3-trifluoropropyl)thieno[2,3-d]pyrimidine-2,4(1H,3H)-dione] was tested, and the Ki [1] was 330 nM, the Ki [2] was 12 nM and the Ki [3] was 3300 nM. For the same molecule, the Ki [4] was 790 nM and the IC50 [5] was 24 nM.
Work on `CCn1c(=O)c2c(C)c(Cn3cc[nH]c3=O)sc2n(CCOC)c1=O` [Example 109, 3-Ethyl-1-(2-methoxyethyl)-5-methyl-6-[(2-oxo-2,3-dihydro-1H-imidazol-1-yl)methyl]thieno[2,3-d]pyrimidine-2,4(1H,3H)-dione] yielded a Ki [1] of 14000 nM, a Ki [2] of 2.8 nM and a Ki [3] of 590 nM. It also gave a Ki [4] of 100 nM and an IC50 [5] of 4.2 nM.
Molecule `CCn1c(=O)c2c(C)c(CN3CCNC3=O)sc2n(CC2CCO2)c1=O` (single isomer, unassigned; enantiomer 1) [Example 66, 3-Ethyl-5-methyl-1-(oxetan-2-ylmethyl)-6-[(2-oxoimidazolidin-1-yl)methyl]thieno[2,3-d]pyrimidine-2,4(1H,3H)-dione (Enantiomer 1)] has a Ki [1] of 6800 nM, a Ki [2] of 5.2 nM and a Ki [3] of 950 nM. For the same molecule, the Ki [4] was 280 nM and the IC50 [5] was 4.3 nM.
`COCCn1c(=O)n(C(C)C(F)(F)F)c(=O)c2c(C)c(CN3CCNC3=NC(=O)OC)sc21` (single isomer, unassigned) [Example 515, Methyl [1-{[1-(2-methoxyethyl)-5-methyl-2,4-dioxo-3-(1,1,1-trifluoropropan-2-yl)-1,2,3,4-tetrahydrothieno[2,3-d]pyrimidin-6-yl]methyl}imidazolidin-2-ylidene]carbamate] showed an IC50 [5] of 24 nM.
Molecule `COC(=O)N=C1NCCN1Cc1sc2c(c1C)c(=O)n(CC(C)OC)c(=O)n2CCC(F)(F)F` (single isomer, unassigned) [Example 473, Methyl [1-{[3-(2-methoxypropyl)-5-methyl-2,4-dioxo-1-(3,3,3-trifluoropropyl)-1,2,3,4-tetrahydrothieno[2,3-d]pyrimidin-6-yl]methyl}imidazolidin-2-ylidene]carbamate] has an IC50 [5] of 3.4 nM.
In the case of `CCCn1cnn(Cc2sc3c(c2C)c(=O)n(CC)c(=O)n3CCC(F)(F)F)c1=O` [Example 355, 3-Ethyl-5-methyl-6-[(5-oxo-4-propyl-4,5-dihydro-1H-H-1,2,4-triazol-1-yl)methyl]-1-(3,3,3-trifluoropropyl)thieno[2,3-d]pyrimidine-2,4(1H,3H)-dione], the IC50 [5] is reported as 99 nM.
